The source of these data is publication PMC3745031 (Bioorganic & medicinal chemistry letters, 2012).

pIC50: −log10 of the molar value.

In one experiment the test system is HDAC1, HDAC3, and HDAC6. As to the kind of experiment: Isoform preference across HDAC1, HDAC3 and HDAC6. In kind it is biochemical.
Experiment [1] deals with HDAC activity of HeLa cell lysates.
Experiment [2] has the same test system. The note with it: ref 16b, cited from earlier work.

On to `CC(CCCCC(=O)NO)CC(=O)Nc1ccccc1` (stereo not shown) [2a], for which, in the experiment with HDAC1, HDAC3, and HDAC6 (500 nM), the “isoform preference in single-concentration screen” value (shortened to “isoform preference”) was “modest dual-preference for HDAC1 and HDAC3 over HDAC6”.

In the case of `CC(C)(C)C(CCCCC(=O)NO)CC(=O)Nc1ccccc1` (stereo not shown) [2c], in experiment [1], the “fold reduced potency compared to SAHA” value was 20 fold. Moreover, in the experiment on HDAC1, HDAC3, and HDAC6 (2 µM), the “isoform preference” value is “preference for HDAC1 and HDAC6 over HDAC3”.

For the molecule `CCCCC(CC)CC(CCCCC(=O)NO)CC(=O)Nc1ccccc1` (stereo not shown) [2d], the “isoform preference” value in the experiment on HDAC1, HDAC3, and HDAC6 (500 nM) was “preference for HDAC3 over HDAC1 and HDAC6”.

`O=C(CC(CCCCC(=O)Nc1ccccc1)c1ccccc1)NO` (stereo not shown) [C3-phenyl SAHA variant]: the pIC50 (as a rule, the IC50 on a negative log10 scale, so that one unit is a factor of ten) in experiment [2] (read-out: IC50, HDAC inhibition) was 4.14. Moreover, the “fold reduced activity versus SAHA” value in experiment [2] is given as 811 fold.

Take `O=C(CCCCC(CC(=O)Nc1ccccc1)c1ccccc1)NO` (stereo not shown) [2b]: the “isoform preference” value in the experiment with HDAC1, HDAC3, and HDAC6 (500 nM) is “similarly inhibited HDAC1, HDAC3, and HDAC6”.
